We go through 50 compounds from the supplement of paper PMC10290057.

Structures are written as SMILES. Where “and” joins values, the source holds several entries; their conditions need not be identical. Equal values may be shown once. Where a name gives a salt, the structure may show the parent alone.

The subject of test [1] is HCT116. The experiment in a line: AC50 cell viability (CellTiter-Glo); higher = less potent. Particulars: 48 h.
Test [2] deals with HCT116. The experiment in a line: efficacy (fitted maximal change in viability relative to DMSO control); higher = less cytotoxic (negative = loss of viability). Particulars: 48 h.
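Throughout, for AC50 cell viability (CellTiter-Glo): HCT116 colorectal carcinoma cells screened at five concentrations per compound, luminescent viability scaled between DMSO wells and empty wells on each plate, curves fitted per compound.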
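Throughout, for efficacy (fitted maximal change in viability relative to DMSO control): Luminescence-based viability readout, five doses per compound, normalized against on-plate DMSO and empty-well controls, followed by dose-response curve fitting for every drug.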

With `CCc1c(O)cc(O)c(C(=O)c2ccc(OCCN3CCOCC3)c(OC)c2)c1CC(=O)N(CCOC)CCOC` [KW-2478], the AC50 cell viability in the test on HCT116 [1] was determined as 0.833 µM. The efficacy in the test on HCT116 [2] is -53.2%.
As to `O=C(Cc1ccc(-c2ccc(OCCN3CCOCC3)cc2)cn1)NCc1ccccc1` [KX-01], the AC50 cell viability with HCT116 [1] amounted to 0.0833 µM. Moreover, in the test on HCT116 [2], the efficacy is -59.6%.
On the same counts, the results for `N[S+](=O)([O-])c1ccc(NC(=S)N2CCN(C/C=C/c3ccccc3)CC2)cc1` [LF3] are 2.95 µM and -42.2%.
`Cc1cc(-c2ncc(CC(=O)Nc3ccc(-c4cnccn4)cn3)cc2C)ccn1` [LGK-974]: in the test with HCT116 [1], the AC50 cell viability came to 16.6 µM. In addition, the efficacy in the test with HCT116 [2] was -52.5%.
For the compound `N[S+](=O)([O-])c1cccc2c1C(=O)c1cccc(O)c1C2=O` [LLL-12], the AC50 cell viability in the test with HCT116 [1] was found to be 0.833 µM. The efficacy in the test on HCT116 [2] is -88%.
In the test with HCT116 [1], `Cc1cn(CCN2CCN(c3ccccc3-c3cc(C#N)cc(C(=O)NCCCN4CCCC4)c3)CC2)c2ccccc12` [LLY-507] yielded an AC50 cell viability of 26.3 µM. The efficacy in the test on HCT116 [2] is -130%.
The compound `COC1=C(OC)C=C\2C(=C1)C(=O)N(CCCNCCO)\C3=C2C(=O)C4=C3C=C5OCOC5=C4` [LMP-744] displayed an AC50 cell viability in the test with HCT116 [1] of 4.17 µM. Also, the efficacy with HCT116 [2] was -99.5%.
For the compound `COc1cc(C(=O)N2CCC(N3CCN(C)CC3)CC2)ccc1Nc1ncc2c(n1)N(C)c1ccccc1C(=O)N2C` [LRRK2-IN-1], the AC50 cell viability with HCT116 [1] was determined as 6.61 µM. The efficacy with HCT116 [2] is -94.6%.
In the case of `Cc1c[nH]c2ncnc(N3CCC(CN)(C(=O)Nc4cccc(OC(=O)N(C)C)c4)CC3)c12` [LX-7101], the AC50 cell viability with HCT116 [1] is 14.8 µM and 11.8 µM. In addition, the efficacy with HCT116 [2] was -68.9% and -70.5%.
The compound `CC1(N)CCN(c2cccnc2NC(=O)c2nc(-c3ncccc3C(F)(F)F)cnc2N)CC1` [LXS-196] displayed an AC50 cell viability in the test on HCT116 [1] of 16.6 µM. Besides, the efficacy in the test with HCT116 [2] was -70.1%.
On to `C[S+](=O)([O-])CCNCc1ccc(-c2ccc3ncnc(Nc4ccc(OCc5cccc(F)c5)c(Cl)c4)c3c2)o1` [Lapatinib], for which, in the test on HCT116 [1], the AC50 cell viability was found to be 16.6 µM. In addition, in the test on HCT116 [2], the efficacy is -99.2%.
For `CCN(C(=O)C/1=C(O)/C2=C(C=CC=C2Cl)N(C)C1=O)C3=CC=CC=C3` [Laquinimod], in that order: 10.5 µM and -65.8%.
As to `Cc1oncc1C(=O)Nc1ccc(C(F)(F)F)cc1` [Leflunomide], the AC50 cell viability in the test with HCT116 [1] came to 3.32 µM. The efficacy with HCT116 [2] is -31.2%.
On to `COc1cc2nccc(Oc3ccc(NC(=O)NC4CC4)c(Cl)c3)c2cc1C(N)=O` [Lenvatinib], for which the AC50 cell viability in the test on HCT116 [1] turned out to be 26.3 µM. Further, in the test with HCT116 [2], the efficacy was -61.7%.
For `CCC(=C/[C@H](C)C/C=C/C(C)=C/[C@@H](C)C(=O)[C@@H](C)[C@H](O)[C@@H](C)C/C(C)=C/C(=O)O)/C=C/[C@@H]1OC(=O)C=C[C@@H]1C` [Leptomycin B], in that order: 0.00372 µM and -80.9%.
On the same counts, the results for `C[C@@]12O[C@@H](C[C@]1(O)CO)n1c3ccccc3c3c4c(c5c6ccccc6n2c5c31)CNC4=O` [Lestaurtinib] are 1.05 µM and -63.8%.
Regarding `CCC[C@H](Nc1nc(-c2ccc(NC(=O)NCC)c(OC)c2)ncc1C)c1cccnc1` [Lexibulin hydrochloride], the AC50 cell viability in the test with HCT116 [1] is 0.0742 µM. In addition, in the test with HCT116 [2], the efficacy was -73.5%.
Turning to `Cc1ccc(F)c(NC(=O)Nc2ccc(-c3cccc4[nH]nc(N)c34)cc2)c1` [Linifanib], the AC50 cell viability in the test with HCT116 [1] is 9.34 µM. Moreover, the efficacy with HCT116 [2] was -90.4%.
Take `C[C@]1(O)CC(C1)C2=NC(=C3[N]2C=CN=C3N)C4=CC5=C(C=C4)C=CC(=N5)C6=CC=CC=C6` (stereo not given) [Linsitinib]: the AC50 cell viability in the test with HCT116 [1] came out at 23.5 µM. For the same compound, the efficacy in the test with HCT116 [2] is -46.3%.
For `Nc1nc(OCc2cc(Br)cs2)c2[nH]cnc2n1` [Lomeguatrib], in that order: 18.6 µM and -56%.
In the case of `NC(=O)N1CCC(CC(=O)N2CCC([C@H]3c4ncc(Br)cc4CCc4cc(Cl)cc(Br)c43)CC2)CC1` [Lonafarnib], the AC50 cell viability in the test on HCT116 [1] is 18.6 µM. Further, the efficacy in the test with HCT116 [2] was -100%.
On the same counts, the results for `CN(C)C(=O)C(CCN1CCC(O)(c2ccc(Cl)cc2)CC1)(c1ccccc1)c1ccccc1` [Loperamide hydrochloride] are 18.6 µM and -98.7%.
In the case of `CC1Oc2cc(cnc2N)-c2c(nn(C)c2C#N)CN(C)C(=O)c2ccc(F)cc21` (stereo not given) [Lorlatinib], the AC50 cell viability with HCT116 [1] is 14.8 µM. For the same compound, the efficacy in the test with HCT116 [2] was -46.2%.
In turn, `C[C@H]1Oc2cc(cnc2N)-c2c(nn(C)c2C#N)CN(C)C(=O)c2ccc(F)cc21` [Lorlatinib] displayed an AC50 cell viability with HCT116 [1] of 0.372 µM. Besides, the efficacy in the test on HCT116 [2] was -33.7%.
For `CCN(CC)CCNc1ccc(C)c2sc3ccccc3c(=O)c12` [Lucanthone], in that order: 14.8 µM and -119%.
`CNC(=O)c1cccc2cc(Oc3ccnc4cc(OCC5(N)CC5)c(OC)cc34)ccc12` [Lucitanib]: in the test with HCT116 [1], the AC50 cell viability stood at 14.8 µM. Besides, in the test on HCT116 [2], the efficacy was -96.6%.
In turn, `COc1ccc2[nH]c3c(c2c1)CCN[C@]31CS[C@@H]2c3c(OC(C)=O)c(C)c4c(c3[C@H](COC1=O)N1[C@@H]2[C@H]2c3c(cc(C)c(OC)c3O)C[C@@H]([C@@H]1O)N2C)OCO4` [Lurbinectedin] showed an AC50 cell viability with HCT116 [1] of 0.00539 µM. Further, the efficacy with HCT116 [2] is -72.4%.
For `NC(=O)c1cccc2c(NC(CN3CCC3)c3ccc(Cl)c(C(F)(F)F)c3)ncnc12` (stereo not given) [M2698], in that order: 10.5 µM and -116%.
As to `CCCCOC(=O)N[S+](=O)([O-])c1sc(CC(C)C)cc1-c1ccc(Cn2ccnc2)cc1` [M-024], in the test on HCT116 [1], the AC50 cell viability worked out at 18.6 µM. For the same compound, the efficacy in the test on HCT116 [2] is -84.4%.
On the same counts, the results for `CN(C)c1ccc(C(=O)NCCCCCCC(=O)NO)cc1` [M-344] are 0.742 µM and -84.5%.
In the test with HCT116 [1], `Cn1cc(/C=C/C(=O)c2cccc(F)c2)cc1/C=C/C(=O)NO` [MC-1568] displayed an AC50 cell viability of 14.8 µM. Besides, the efficacy in the test on HCT116 [2] is -49.8%.
On the same counts, the results for `CC1(N2CCC(n3c([C@@H]4CCCNC4)nc4ccccc43)CC2)CCCCCCC1` [MCOPPB] are 9.34 µM and -82.3%.
Compound `OC(c1cc(C(F)(F)F)nc2c(C(F)(F)F)cccc12)C1CCCCN1` (stereo not given) [MEFLOQUINE] had an AC50 cell viability in the test on HCT116 [1] of 20.9 µM. In addition, in the test with HCT116 [2], the efficacy is -109%.
For `CCC[C@@H](C=O)NC(=O)[C@H](CC(C)C)NC(=O)[C@H](CC(C)C)NC(=O)OCc1ccccc1` [MG-115], in that order: 0.661 µM and -93.3%.
In the test with HCT116 [1], `CC(C)C[C@@H](C=O)NC(=O)[C@H](CC(C)C)NC(=O)[C@H](CC(C)C)NC(=O)OCc1ccccc1` [MG-132] came in with an AC50 cell viability of 0.468 µM. In the test with HCT116 [2], the efficacy was -89.4%.
Consider `CCCCCCCc1ccc(CCc2cccc(O)c2C(=O)O)cc1` [MG-149], for which, in the test with HCT116 [1], the AC50 cell viability is 18.6 µM. Moreover, in the test on HCT116 [2], the efficacy is -42.3%.
On the same counts, the results for `Cn1cnc(-c2cc3nccc(Oc4ccc(NC(=S)NC(=O)Cc5ccccc5)cc4F)c3s2)c1` [MGCD-265] are 16.6 µM and -59.3%.
On the same counts, the results for `COCCOc1nc(-c2ccc(Cl)c(Cl)c2)n(-c2ccc(NC(=O)CCl)cc2)n1` [MI-2] are 18.6 µM and -63.7%.
In the case of `Cc1c(CN2CCC(Nc3ncnc4sc(CC(F)(F)F)cc34)CC2)ccc2c1cc(C#N)n2Cc1cn[nH]c1` [MI-503], the AC50 cell viability in the test with HCT116 [1] was 3.72 µM. Also, in the test on HCT116 [2], the efficacy was -76%.
For the compound `N#Cc1cc2cc(CN3CCC(Nc4ncnc5sc(CC(F)(F)F)cc45)CC3)c(O)cc2n1Cc1cn[nH]c1` [MI-538], the AC50 cell viability in the test with HCT116 [1] stood at 13.2 µM. Moreover, the efficacy in the test on HCT116 [2] is -111%.
`CN1CCN(c2ccc3nc(-c4cc(C(C)(C)C)c(OCCCC(=O)NCCCN=[N+]=[N-])c(C(C)(C)C)c4)[nH]c3c2)CC1` [MIR96-IN-1] registered an AC50 cell viability with HCT116 [1] of 8.33 µM. Further, in the test with HCT116 [2], the efficacy was -98.9%.
For `CC(C)(C)Sc1c(CC(C)(C)C(=O)O)n(Cc2ccc(Cl)cc2)c2ccc(OCc3ccc4ccccc4n3)cc12` [MK591], in that order: 20.9 µM and -88.4%.
For `CC(C)c1ccc2c(c1)c(SC(C)(C)C)c(CC(C)(C)C(=O)[O-])n2Cc1ccc(Cl)cc1` [MK-886], in that order: 20.9 µM and -83.3%.
As to `C=CCn1c(=O)c2cnc(Nc3ccc(N4CCN(C)CC4)cc3)nc2n1-c1cccc(C(C)(C)O)n1` [MK-1775], the AC50 cell viability with HCT116 [1] was 0.742 µM. The efficacy in the test with HCT116 [2] was -73.8%.
As to `NC1(CCC1)C2=CC=C(C=C2)C3=C(C=C/4C(=N3)\C=C/N5C(=O)N\N=C45)C6=CC=CC=C6` [MK-2206], the AC50 cell viability with HCT116 [1] is 16.6 µM. The efficacy in the test on HCT116 [2] was -122%.
For `CN(C[C@@H]1COCCO1)[S+]([O-])(=O)NC2=CC3=C(C=C2)\C=C/C4=C(C=C(C=N4)C5=C[N](C)N=C5)C3=O` [MK-2461], in that order: 18.6 µM and -103%.
For `O=C(O)C1(Cc2cccc(Nc3nccs3)n2)CCC(Oc2cccc(Cl)c2F)CC1` (stereo not given) [MK-5108], in that order: 0.833 µM and -34.3%.
For `C[N]1C=C(C=N1)C2=CN=C3\C=C/C4=CC=C(C[S+]([O-])(=O)NCC5=NC=CC=C5)C=C4C(=O)C3=C2` [MK-8033], in that order: 16.6 µM and -65.9%.
On to `Cn1cc(-c2cnn3c(N)c(Br)c(C4CCCNC4)nc23)cn1` (stereo not given) [MK-8776], for which the AC50 cell viability in the test with HCT116 [1] amounted to 10.5 µM. Moreover, the efficacy in the test on HCT116 [2] is -113%.
Regarding `C[N]1C=C(C2=CC=CC=C12)/C3=C(/C(=O)NC3=O)C4=C[N](C)C5=CC(=CC=C45)[N+]([O-])=O` [MKC-1], the AC50 cell viability in the test on HCT116 [1] turned out to be 1.86 µM. Moreover, the efficacy with HCT116 [2] is -87.5%.
